Consider eight molecules from US20040162221A1, “Pyrazole derivatives and herbicides containing the same” (IDEMITSU KOSAN CO., LTD., priority 1998, published 2004).

Each structure is given as a SMILES string.
Further: ranges in brackets are in %.

In one data set the test system is velvetleaf. The data set can be described thus: Upland post-emergence treatment test, velvetleaf. Format: in vivo, velvetleaf (Abutilon theophrasti). As to conditions: post-emergence spray at 3-4 leaf stage, 80 g/ha, 30th day after treatment, greenhouse. An excerpt: (§1) 97 Parts by weight of talc (trade name: Zeaklite, supplied by Zeaklite Industry) as a carrier, 1.5 parts by weight of alkylarylsulfonic acid salt (trade name: Neoplex, supplied by Kao-Atlas K.K.) as a surfactant and 1.5 parts by weight of a nonionic and anionic surfactant (trade names Sorpol 800A, supplied by Toho Chemical Co., Ltd.) were uniformly pulverized and mixed to prepare a carrier for a wettable powder.
(§2) 90 Parts by weight of the above carrier for a wettable powder and 10 parts by weight of one of the compounds of the present invention were uniformly pulverized and mixed to obtain herbicides. Further, in Comparative Herbicide Examples, comparative herbicides were also prepared from the following compounds (A) and (B) in the same manner.
(§3) Herbicidal efficacy and phytotoxicity to crops were determined on the basis of the ratio of remaining plant weight to plant weight in non-treated plot=(remaining plant weight in treated plot/plant weight in non-treated-plot)×100. The ratings were applied to the following biological tests.
(§4) Seeds of weeds velvetleaf, redroot pigweed, common ragweed, green foxtail and large crabgrass and seeds of corn were sown in 1/5,000-are Wagner pots filled with upland soil, and covered with upland soil. The seeds were grown in a greenhouse, and at the stage of 3˜4 leaves of these plants, a predetermined amount of the herbicide prepared in the above (1) was suspended in water, and the suspension was uniformly sprayed onto leaf and stalk portions at a rate of 2,000 liters/hectare. Then, the plants were grown in the greenhouse, and on the 30th day after the treatment, the herbicide was evaluated for herbicidal efficacy and phytotoxicity to the corn on the basis of the ratings shown in (2).
As to `Cc1c(C(=O)c2cnn(C)c2OS(=O)(=O)C(C)C)ccc2c1C(C)(C)CS2(=O)=O` [Compound 5], the “Herbicidal Efficacy AA = Velvetleaf” value was 5 (0).

Turning to `Cc1c(C(=O)c2cnn(C)c2OS(=O)(=O)C2CC2)ccc2c1C(C)(C)CS2(=O)=O` [Compound 6], the “Herbicidal Efficacy AA = Velvetleaf” value was 5 (0).

With `CCCCS(=O)(=O)Oc1c(C(=O)c2ccc3c(c2C)C(C)(C)CS3(=O)=O)cnn1C` [Compound 7], the “Herbicidal Efficacy AA = Velvetleaf” value is listed as 5 (0).

As to `Cc1c(C(=O)c2cnn(C)c2OS(=O)(=O)CC(C)C)ccc2c1C(C)(C)CS2(=O)=O` [Compound 8], the “Herbicidal Efficacy AA = Velvetleaf” value was 5 (0).

In the case of `CCCCCCCCS(=O)(=O)Oc1c(C(=O)c2ccc3c(c2C)C(C)(C)CS3(=O)=O)cnn1C` [Compound 12], the “Herbicidal Efficacy AA = Velvetleaf” value is reported as 5 (0).

For `Cc1c(C(=O)c2cnn(C)c2OS(=O)(=O)CCl)ccc2c1C(C)(C)CS2(=O)=O` [Compound 13], the “Herbicidal Efficacy AA = Velvetleaf” value was 5 (0).

Turning to `Cc1c(C(=O)c2cnn(C)c2OS(=O)(=O)CCCCl)ccc2c1C(C)(C)CS2(=O)=O` [Compound 14], the “Herbicidal Efficacy AA = Velvetleaf” value is 5 (0).

As for `Cc1c(C(=O)c2cnn(C)c2OS(=O)(=O)c2ccccc2)ccc2c1C(C)(C)CS2(=O)=O` [Compound 15], the “Herbicidal Efficacy AA = Velvetleaf” value was 5 (0).

A further data set concerns redroot pigweed. The data set can be described thus: Upland post-emergence treatment test, redroot pigweed. Type of data set: in vivo, redroot pigweed (Amaranthus retroflexus). The note with it: post-emergence spray at 3-4 leaf stage, 80 g/ha, 30th day after treatment, greenhouse.
Excerpt: as §1, §2, §3, §4
`Cc1c(C(=O)c2cnn(C)c2OS(=O)(=O)C(C)C)ccc2c1C(C)(C)CS2(=O)=O` [Compound 5]: the “Herbicidal Efficacy CC = Redroot Pigweed” value is 5 (0).

With `Cc1c(C(=O)c2cnn(C)c2OS(=O)(=O)C2CC2)ccc2c1C(C)(C)CS2(=O)=O` [Compound 6], the “Herbicidal Efficacy CC = Redroot Pigweed” value is 5 (0).

Take `CCCCS(=O)(=O)Oc1c(C(=O)c2ccc3c(c2C)C(C)(C)CS3(=O)=O)cnn1C` [Compound 7]: the “Herbicidal Efficacy CC = Redroot Pigweed” value is 5 (0).

On to `Cc1c(C(=O)c2cnn(C)c2OS(=O)(=O)CC(C)C)ccc2c1C(C)(C)CS2(=O)=O` [Compound 8], for which the “Herbicidal Efficacy CC = Redroot Pigweed” value is 5 (0).

For `CCCCCCCCS(=O)(=O)Oc1c(C(=O)c2ccc3c(c2C)C(C)(C)CS3(=O)=O)cnn1C` [Compound 12], the “Herbicidal Efficacy CC = Redroot Pigweed” value is 5 (0).

`Cc1c(C(=O)c2cnn(C)c2OS(=O)(=O)CCl)ccc2c1C(C)(C)CS2(=O)=O` [Compound 13]: the “Herbicidal Efficacy CC = Redroot Pigweed” value is 5 (0).

With `Cc1c(C(=O)c2cnn(C)c2OS(=O)(=O)CCCCl)ccc2c1C(C)(C)CS2(=O)=O` [Compound 14], the “Herbicidal Efficacy CC = Redroot Pigweed” value is on record as 5 (0).

In the case of `Cc1c(C(=O)c2cnn(C)c2OS(=O)(=O)c2ccccc2)ccc2c1C(C)(C)CS2(=O)=O` [Compound 15], the “Herbicidal Efficacy CC = Redroot Pigweed” value was 5 (0).

The next data set has as its system green foxtail. The data set can be described thus: Upland post-emergence treatment test, green foxtail. Format: in vivo, green foxtail (Setaria viridis). The note with it: post-emergence spray at 3-4 leaf stage, 80 g/ha, 30th day after treatment, greenhouse.
Excerpt: as §1, §2, §3, §4
Consider `Cc1c(C(=O)c2cnn(C)c2OS(=O)(=O)C(C)C)ccc2c1C(C)(C)CS2(=O)=O` [Compound 5], for which the “Herbicidal Efficacy EE = Green foxtail” value is recorded as 5 (0).

On to `Cc1c(C(=O)c2cnn(C)c2OS(=O)(=O)C2CC2)ccc2c1C(C)(C)CS2(=O)=O` [Compound 6], for which the “Herbicidal Efficacy EE = Green foxtail” value is 5 (0).

As to `CCCCS(=O)(=O)Oc1c(C(=O)c2ccc3c(c2C)C(C)(C)CS3(=O)=O)cnn1C` [Compound 7], the “Herbicidal Efficacy EE = Green foxtail” value was 5 (0).

For the molecule `Cc1c(C(=O)c2cnn(C)c2OS(=O)(=O)CC(C)C)ccc2c1C(C)(C)CS2(=O)=O` [Compound 8], the “Herbicidal Efficacy EE = Green foxtail” value was 5 (0).

In the case of `CCCCCCCCS(=O)(=O)Oc1c(C(=O)c2ccc3c(c2C)C(C)(C)CS3(=O)=O)cnn1C` [Compound 12], the “Herbicidal Efficacy EE = Green foxtail” value is 5 (0).

`Cc1c(C(=O)c2cnn(C)c2OS(=O)(=O)CCl)ccc2c1C(C)(C)CS2(=O)=O` [Compound 13]: the “Herbicidal Efficacy EE = Green foxtail” value is on record as 5 (0).

In the case of `Cc1c(C(=O)c2cnn(C)c2OS(=O)(=O)CCCCl)ccc2c1C(C)(C)CS2(=O)=O` [Compound 14], the “Herbicidal Efficacy EE = Green foxtail” value is given as 5 (0).

With `Cc1c(C(=O)c2cnn(C)c2OS(=O)(=O)c2ccccc2)ccc2c1C(C)(C)CS2(=O)=O` [Compound 15], the “Herbicidal Efficacy EE = Green foxtail” value is reported as 5 (0).

Another data set has as its system large crabgrass. The data set can be described thus: Upland post-emergence treatment test, large crabgrass. The note with it: post-emergence spray at 3-4 leaf stage, 80 g/ha, 30th day after treatment, greenhouse. Format: in vivo.
Excerpt: as §1, §2, §3, §4
Consider `Cc1c(C(=O)c2cnn(C)c2OS(=O)(=O)C(C)C)ccc2c1C(C)(C)CS2(=O)=O` [Compound 5], for which the “Herbicidal Efficacy FF = Large crabgrass” value was 5 (0).

Turning to `Cc1c(C(=O)c2cnn(C)c2OS(=O)(=O)C2CC2)ccc2c1C(C)(C)CS2(=O)=O` [Compound 6], the “Herbicidal Efficacy FF = Large crabgrass” value was 5 (0).

Take `CCCCS(=O)(=O)Oc1c(C(=O)c2ccc3c(c2C)C(C)(C)CS3(=O)=O)cnn1C` [Compound 7]: the “Herbicidal Efficacy FF = Large crabgrass” value was 5 (0).

Regarding `Cc1c(C(=O)c2cnn(C)c2OS(=O)(=O)CC(C)C)ccc2c1C(C)(C)CS2(=O)=O` [Compound 8], the “Herbicidal Efficacy FF = Large crabgrass” value is recorded as 5 (0).

For `CCCCCCCCS(=O)(=O)Oc1c(C(=O)c2ccc3c(c2C)C(C)(C)CS3(=O)=O)cnn1C` [Compound 12], the “Herbicidal Efficacy FF = Large crabgrass” value is recorded as 5 (0).

As to `Cc1c(C(=O)c2cnn(C)c2OS(=O)(=O)CCl)ccc2c1C(C)(C)CS2(=O)=O` [Compound 13], the “Herbicidal Efficacy FF = Large crabgrass” value was 5 (0).

Turning to `Cc1c(C(=O)c2cnn(C)c2OS(=O)(=O)CCCCl)ccc2c1C(C)(C)CS2(=O)=O` [Compound 14], the “Herbicidal Efficacy FF = Large crabgrass” value was 5 (0).

As to `Cc1c(C(=O)c2cnn(C)c2OS(=O)(=O)c2ccccc2)ccc2c1C(C)(C)CS2(=O)=O` [Compound 15], the “Herbicidal Efficacy FF = Large crabgrass” value is recorded as 5 (0).

The next data set concerns corn. The data set can be described thus: Upland post-emergence treatment test, phytotoxicity to corn. Format: in vivo. The note with it: post-emergence spray at 3-4 leaf stage, 80 g/ha, 30th day after treatment, greenhouse.
Excerpt: as §1, §2, §3, §4
On to `Cc1c(C(=O)c2cnn(C)c2OS(=O)(=O)C(C)C)ccc2c1C(C)(C)CS2(=O)=O` [Compound 5], for which the “Phytotoxicity Corn” value is reported as “− (100)”.

Take `Cc1c(C(=O)c2cnn(C)c2OS(=O)(=O)C2CC2)ccc2c1C(C)(C)CS2(=O)=O` [Compound 6]: the “Phytotoxicity Corn” value is reported as “− (100)”.

For the molecule `CCCCS(=O)(=O)Oc1c(C(=O)c2ccc3c(c2C)C(C)(C)CS3(=O)=O)cnn1C` [Compound 7], the “Phytotoxicity Corn” value is “− (100)”.

In the case of `Cc1c(C(=O)c2cnn(C)c2OS(=O)(=O)CC(C)C)ccc2c1C(C)(C)CS2(=O)=O` [Compound 8], the “Phytotoxicity Corn” value is “− (100)”.

Regarding `CCCCCCCCS(=O)(=O)Oc1c(C(=O)c2ccc3c(c2C)C(C)(C)CS3(=O)=O)cnn1C` [Compound 12], the “Phytotoxicity Corn” value is “− (100)”.

In the case of `Cc1c(C(=O)c2cnn(C)c2OS(=O)(=O)CCl)ccc2c1C(C)(C)CS2(=O)=O` [Compound 13], the “Phytotoxicity Corn” value was “− (100)”.

`Cc1c(C(=O)c2cnn(C)c2OS(=O)(=O)CCCCl)ccc2c1C(C)(C)CS2(=O)=O` [Compound 14]: the “Phytotoxicity Corn” value is recorded as “− (100)”.

Take `Cc1c(C(=O)c2cnn(C)c2OS(=O)(=O)c2ccccc2)ccc2c1C(C)(C)CS2(=O)=O` [Compound 15]: the “Phytotoxicity Corn” value is listed as “− (100)”.

Another data set has as its system common ragweed. The experiment in a line: Upland post-emergence treatment test, common ragweed. Type of data set: in vivo, common ragweed (Ambrosia artemisilfolia). The note with it: post-emergence spray at 3-4 leaf stage, 80 g/ha, 30th day after treatment, greenhouse.
Excerpt: as §1, §2, §3, §4
Regarding `Cc1c(C(=O)c2cnn(C)c2OS(=O)(=O)C(C)C)ccc2c1C(C)(C)CS2(=O)=O` [Compound 5], the “Herbicidal Efficacy DD = Common ragweed” value is 5 (0).

On to `Cc1c(C(=O)c2cnn(C)c2OS(=O)(=O)C2CC2)ccc2c1C(C)(C)CS2(=O)=O` [Compound 6], for which the “Herbicidal Efficacy DD = Common ragweed” value is 5 (0).

Take `CCCCS(=O)(=O)Oc1c(C(=O)c2ccc3c(c2C)C(C)(C)CS3(=O)=O)cnn1C` [Compound 7]: the “Herbicidal Efficacy DD = Common ragweed” value is 5 (0).

As to `Cc1c(C(=O)c2cnn(C)c2OS(=O)(=O)CC(C)C)ccc2c1C(C)(C)CS2(=O)=O` [Compound 8], the “Herbicidal Efficacy DD = Common ragweed” value is given as 5 (0).

As to `CCCCCCCCS(=O)(=O)Oc1c(C(=O)c2ccc3c(c2C)C(C)(C)CS3(=O)=O)cnn1C` [Compound 12], the “Herbicidal Efficacy DD = Common ragweed” value is 5 (0).

Consider `Cc1c(C(=O)c2cnn(C)c2OS(=O)(=O)CCl)ccc2c1C(C)(C)CS2(=O)=O` [Compound 13], for which the “Herbicidal Efficacy DD = Common ragweed” value was 5 (0).

For the molecule `Cc1c(C(=O)c2cnn(C)c2OS(=O)(=O)CCCCl)ccc2c1C(C)(C)CS2(=O)=O` [Compound 14], the “Herbicidal Efficacy DD = Common ragweed” value is 5 (0).

`Cc1c(C(=O)c2cnn(C)c2OS(=O)(=O)c2ccccc2)ccc2c1C(C)(C)CS2(=O)=O` [Compound 15]: the “Herbicidal Efficacy DD = Common ragweed” value is listed as 5 (0).
